US20060051321A1, “Biological compositions and methods for treatment of testicular cancer” (Ultra Biotech Limited, priority 2003, published 2006)

Tests used:
Assay type in all cases: in vivo
[1] = system: testicular cancer cell line CRL-1973; experiment: Tumor growth in Wistar rat model of human testicular cancer (Example 8); conditions: rats injected s.c. with CRL-1973 cells; 30 consecutive days of treatment; sacrificed on 31st day from tumor inoculation
Description: The following example illustrates the benefit of a biological composition of the invention in a Wistar rat model of human testicular cancer. The growth of the tumor in the rats was studied.
(§1) Numerous animal studies have reported the use of Wistar rat models in the study of human testicular cancer. There is very high success rate for transplanting testicular tumor CRL-1973 cells in rats. The testicular tumor cell line CRL-1973 can be ordered from the American Type Culture Collection.
(§2) The biological composition comprising 10^8 cells per ml of activated and conditioned yeast cells of the strain Saccharomyces cerevisiae Hansen strain AS2.182 was prepared by the methods described in Section 5.1 and subsections therein.
The animals used for the experiments were male Wistar rats (obtainable from the Chinese Academy of Military Medical Sciences, Beijing, China). About 2×10^7 viable tumor cells of the testicular cancer cell line CRL-1973 (obtainable from the Cancer Institute, Chinese Academy of Medical Sciences, Beijing, China) in about 0.2 ml culture suspension was injected subcutaneously into the animals. […]
The rats received the biological compositions, untreated yeast cells, VLB or saline on the same day as the tumor cells were transplanted. […] The weight of the rats and the weight of the tumor were determined by standard techniques.

[2] = system: testicular cancer cell line CRL-1973; experiment: Survival in Wistar rat model of human testicular cancer (Example 9); conditions: for Number of live animals remaining in the groups after 30 days of treatment: 30 rats per group
Procedure: The survival time of mice after tumor injection and treatment was studied.
as §2
The animals were prepared in a similar manner as described in Section 8.1.
After injection with CRL-1973 cells, the rats were divided into 4 experimental groups of ten rats per group and one control group. The four experimental groups were triplicated (ie., using a total of 120 rats in the experimental groups). In group 2AY, the rats received 1.2 ml of the biological composition once per day. In group 2NY, the rats received 1.2 ml of the untreated yeast cells once per day. […] In group 2CK1, the rats received 1.2 ml of physiological saline once per day.
(§3) The rats received the biological compositions, untreated yeast cells, VLB or saline on the same day as the tumor cells were transplanted. The rats in group 2CK2 also started receiving saline on the same day as the other four groups. The biological compositions, untreated yeast cells and saline were administered orally by a feeding tube and the VLB by intravenous injection for 30 consecutive days. The mice were observed over 6 months from the day of tumor inoculation and survival was recorded. The weight of the mice and the weight of the tumor were determined by standard techniques.

[3] = system: testicular cancer cell line HTB-104; experiment: Survival in kun ming mouse model of human testicular cancer (Example 7); conditions: for Number of live animals remaining in the groups after 30 days of treatment: 30 mice per group
Procedure: The following example illustrates the benefit of a biological composition of the invention in a kun ming mouse model of human testicular cancer. The survival time of rats after tumor injection and treatment was studied.
The biological composition comprising 10^8 cells per ml of activated and conditioned yeast cells of the strain Saccharomyces cerevisiae Hansen strain AS2. 182 was prepared by the methods described in Section 5.1 and subsections therein.
The animals were prepared in a similar manner as described in Section 6.1.
After injection with HTB-104 cells, the mice were divided into 4 experimental groups of ten mice per group and one control group. The four experimental groups were triplicated (i.e., using a total of 120 mice in the experimental groups). In group 2AY, the mice received 0.5 ml of the biological composition once per day. In group 2NY, the mice received 0.5 ml of the untreated yeast cells once per day. In group 2BLM, the mice were injected subcutaneously with 0.8 mg of bleomycin (BLM) per kg body weight per day. In group 2CK1, the mice received 0.5 ml of physiological saline once per day.
as §3, with “The mice” for “The rats”, “cells, BLM” for “cells, VLB”, “cells or” for “cells and”, “the BLM” for “the VLB”, “by subcutaneous” for “by intravenous”

[4] = system: testicular cancer cell line HTB-104; experiment: Tumor growth in kun ming mouse model of human testicular cancer (Example 6); conditions: mice injected s.c. with HTB-104 cells; 30 consecutive days of treatment; sacrificed on 31st day from tumor inoculation
Description: The following example illustrates the benefit of a biological composition of the invention in a kun ming mouse model of human testicular cancer. The growth of tumors in the mice was studied.
as §1, with “kun ming mouse” for “Wistar rat”, “almost a 100%” for “very high”, “HTB-104” for “CRL-1973”, “mice.” for “rats.”
as §2
The animals used for the experiments were kun ming mouse (obtainable from the Chinese Academy of Military Medical Sciences, Beijing, China). Only males 20 to 22 gram in body weight, 6 to […] old were used. […]
The mice received the biological compositions, untreated yeast cells, BLM or saline on the same day as the tumor cells were transplanted. […] On the 31st day from tumor inoculation, the mice were sacrificed and the weight of the mice and the weight of the tumor were determined by standard techniques.

[5] = 0 month after cessation of treatment
[6] = 1 month after cessation of treatment
[7] = 2 months after cessation of treatment
[8] = 3 months after cessation of treatment
[9] = 4 months after cessation of treatment
[10] = 5 months after cessation of treatment
[11] = 6 months after cessation of treatment

CC[C@]1(O)C[C@@H]2CN(CCc3c([nH]c4ccccc34)[C@@](C(=O)OC)(c3cc4c(cc3OC)N(C)[C@H]3[C@@](O)(C(=O)OC)[C@H](OC(C)=O)[C@]5(CC)C=CCN6CC[C@]43[C@@H]65)C2)C1 [VLB, vinblastine]
mean weight of tumor nodules and standard deviation [1]: 2.67 ± 2.65 g | Number of live animals remaining in the groups after 30 days of treatment [2, 5]: 30 | Number of live animals remaining in the groups after 30 days of treatment [2, 6]: 30 | Number of live animals remaining in the groups after 30 days of treatment [2, 7]: 22 | Number of live animals remaining in the groups after 30 days of treatment [2, 8]: 9 | Number of live animals remaining in the groups after 30 days of treatment [2, 9]: 1 | Number of live animals remaining in the groups after 30 days of treatment [2, 10]: 0 | Number of live animals remaining in the groups after 30 days of treatment [2, 11]: 0 | death of all animals, time from injection of tumor cells ([2]; rats bearing CRL-1973 cells, 30 days of treatment): all died after five months | mean weight of tumor nodules and standard deviation ([2]; rats that survived, observed over 6 months from tumor inoculation): all animals dead

bleomycin [BLM]
Number of live animals remaining in the groups after 30 days of treatment [3, 5]: 30 | Number of live animals remaining in the groups after 30 days of treatment [3, 6]: 27 | Number of live animals remaining in the groups after 30 days of treatment [3, 7]: 16 | Number of live animals remaining in the groups after 30 days of treatment [3, 8]: 0 | Number of live animals remaining in the groups after 30 days of treatment [3, 9]: 0 | Number of live animals remaining in the groups after 30 days of treatment [3, 10]: 0 | Number of live animals remaining in the groups after 30 days of treatment [3, 11]: 0 | death of all animals, time from injection of tumor cells ([3]; mice bearing HTB-104 cells, 30 days of treatment): all died after three months | mean weight of tumor nodules and standard deviation ([3]; mice that survived, observed over 6 months from tumor inoculation): all animals dead | mean weight of tumor nodules and standard deviation [4]: 1.13 ± 0.65 mg
